These results are taken from patent US12110299B2, “Thiazole derivatives and pharmaceutically acceptable salts thereof” (YUNGJIN PHARM. CO., LTD., priority 2018, dated 2024).

For experiment [1], the target named is recombinant purified human CDK7 kinase (Homo sapiens (Human), UniProt P50613). Nature of the experiment: CDK7 kinase-inhibitory activity, ADP-Glo kinase assay. Type of experiment: biochemical. The settings on record: ATP 90 µM, MBP substrate, 2 hours at 30° C., read-out: CDK7 inhibition(IC50 nM). On the procedure: Representative compounds of the present invention were assayed in vitro for CDK7 kinase-inhibitory activities using ADP-Glo platform. In detail, CDK7 kinase-inhibitory activity was measured using recombinant purified human CDK7 kinase (ThermoFisher, PV3868) and ADP Glo kinase assays kit (Promega, V9102). CDK7 kinase was diluted with 1× kinase reaction buffer (40 mM Tris-C1, pH 7.5, 20 mM MgCl2, 0.1 mg/ml BSA and 50 [M DTT) and added to 96 well plates (final concentration of CDK7 per reaction: 50 ng). The compound was finally treated to be a 1% DMSO aqueous solution, and a substrate cocktail containing ATP (final concentration of 90 [M) and 0.2 μg/μl of MBP (Myelin basic protein) in a total of 25 μl of reaction mass was added to 96 well plates, thereby initiating an enzymatic reaction. After 2 hours of incubation (30° C.), equivalent volume (25 μl per reaction) of ADP Glo was added and incubated (30° C.) at room temperature for 60 minutes. The kinase detection reagent (50 μl per reaction) was then added and incubated (30° C.) at room temperature for 30 minutes. The kinase activity was measured by chemiluminescence method according to ADP Glo Kanease Assay Kit instruction manual, and the CDK7-inhibitory activity of the compounds according to the present invention was calculated. The result analysis of each compound was performed using Microsoft Excel, and IC50 values were calculated by Prism software.

The subject of experiment [2] is HepG2 cells. Description: HepG2 cell viability assay (CCK-8). Type of experiment: cell-based, human. As for the experimental part:
The ability to inhibit the proliferation of HepG2 cells, which are human hepatocellular carcinoma cells, was measured through the in vitro cell viability assay. Cells were cultured at 37° C. in a humidified condition in the presence of 5% CO2 using a culture medium of MEM (Welgene)+10% FBS (Gibco)+1% penicillin/streptomycin (Gibco). […] Cell viability was measured by CCK-8 method using tetrazolium salt, and the ability of the compounds according to the present invention to inhibit cancer cell proliferation was calculated.

The test system of experiment [3] is MDA-MB-468 cells. Nature of the experiment: Anti-proliferative effect on MDA-MB-468 cells, inhibition rate at 100 nM (tetrazolium salt method). Type of experiment: cell-based. The settings on record: Homo sapiens, 72 hours.
Procedure: Representative compounds of the present invention were tested at different concentrations (from 1000 nM to 25 nM) to assess their ability to inhibit the proliferation of MDA-MB-468 cells. Cells were grown in RPMI 1640 (Welgene)+10% FBS (Gibco)+1% penicillin/streptomycin (Gibco) and cultured at 37° C. in a humidified chamber in the presence of 5% CO2.
MDA-MB-468 cells cultured in 96-well cell culture plates were treated with representative compounds of the present invention and cultured for 72 hours.
Experiment [4] relates to MDA-MB-468 cells. Nature of the experiment: Anti-proliferative effect on MDA-MB-468 cells, IC50 (MTT). Type of experiment: cell-based.
Procedure: The compounds of the present invention were tested at different concentrations (from 1000 nM to 1 nM) to assess their ability for inhibiting the proliferation of MDAMB-468 cells. Cells were cultivated in RPMI 1640 (Welgene)+10% FBS (Gibco)+1% penicillin/streptomycin (Gibco) and cultured at 37° C. in a humidified chamber in the presence of 5% C02.
MDA-MB-468 cells cultured in 96-well cell culture plates were treated with the compounds of the present invention and incubated for 72 hours.
Experiment [5] concerns the target CDK2 (Homo sapiens (Human), UniProt P24941). Nature of the experiment: scanMAX Kinase Assay Panel, CDK2. It counts as binding. The settings on record: read-out: % inhibition at 1 uM CDK2, compound at 1 uM. On the procedure: (§1) The assay (scanMAX Kinase Assay Panel) was performed. […] Kinase Assay Panel contains a set of 468 kinases including CDK2, CDK5. The compounds were screened at 1 [M, and results for binding interactions are reported compared to control (%).

In experiment [6] the target is CDK5 (Homo sapiens (Human), UniProt Q00535). Nature of the experiment: scanMAX Kinase Assay Panel, CDK5. Type of experiment: binding. Particulars: read-out: % inhibition at 1 uM CDK5, compound at 1 uM. As for the experimental part:
as §1

The target in experiment [7] is CDK7 (Homo sapiens (Human), UniProt P50613). Nature of the experiment: scanMAX Kinase Assay Panel, CDK7. Particulars: read-out: % inhibition at 1 uM CDK7, compound at 1 uM. Type of experiment: binding. On the procedure: as §1
CDK7, sequence (P50613 whole entry): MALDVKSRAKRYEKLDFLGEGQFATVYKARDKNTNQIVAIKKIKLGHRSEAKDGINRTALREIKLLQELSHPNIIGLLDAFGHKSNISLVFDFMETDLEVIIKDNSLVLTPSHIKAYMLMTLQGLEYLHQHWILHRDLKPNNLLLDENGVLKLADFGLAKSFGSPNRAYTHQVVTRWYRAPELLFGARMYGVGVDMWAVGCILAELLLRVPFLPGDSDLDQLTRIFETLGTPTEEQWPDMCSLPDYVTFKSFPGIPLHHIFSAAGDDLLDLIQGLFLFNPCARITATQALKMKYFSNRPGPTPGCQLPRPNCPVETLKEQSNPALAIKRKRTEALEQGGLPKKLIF

recombinant purified human CDK7 kinase, sequence (P50613 whole entry): as above
recombinant purified human CDK7 kinase, sequence (P51946 whole entry partner): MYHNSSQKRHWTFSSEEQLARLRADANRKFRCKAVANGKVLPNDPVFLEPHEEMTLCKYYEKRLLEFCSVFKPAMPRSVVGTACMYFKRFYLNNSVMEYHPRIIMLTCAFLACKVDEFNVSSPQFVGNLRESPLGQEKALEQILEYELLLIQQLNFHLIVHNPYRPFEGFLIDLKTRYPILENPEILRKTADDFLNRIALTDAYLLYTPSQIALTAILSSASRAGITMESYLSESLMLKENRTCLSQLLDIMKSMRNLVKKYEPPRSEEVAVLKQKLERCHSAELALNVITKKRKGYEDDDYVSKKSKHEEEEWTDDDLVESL
recombinant purified human CDK7 kinase, sequence (P51948 whole entry partner): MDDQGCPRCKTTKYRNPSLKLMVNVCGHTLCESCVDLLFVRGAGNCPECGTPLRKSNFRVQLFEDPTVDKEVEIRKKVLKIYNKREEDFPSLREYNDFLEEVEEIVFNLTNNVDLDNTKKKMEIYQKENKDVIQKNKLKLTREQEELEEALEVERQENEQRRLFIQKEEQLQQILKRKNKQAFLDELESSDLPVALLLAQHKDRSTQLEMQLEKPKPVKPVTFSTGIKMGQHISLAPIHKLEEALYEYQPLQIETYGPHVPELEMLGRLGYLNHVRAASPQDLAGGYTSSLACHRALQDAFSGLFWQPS
CDK5, sequence (Q00535 whole entry): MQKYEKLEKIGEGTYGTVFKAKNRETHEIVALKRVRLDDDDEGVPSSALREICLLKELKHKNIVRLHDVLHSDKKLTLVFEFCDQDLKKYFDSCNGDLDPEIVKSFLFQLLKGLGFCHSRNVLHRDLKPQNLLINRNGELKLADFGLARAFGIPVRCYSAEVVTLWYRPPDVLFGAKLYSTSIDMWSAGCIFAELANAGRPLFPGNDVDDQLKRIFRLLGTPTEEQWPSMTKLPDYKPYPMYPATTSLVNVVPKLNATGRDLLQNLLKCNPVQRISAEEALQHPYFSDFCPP

For orientation: IC50 means the concentration at which inhibition is half-maximal. A word on the inhibition: it is the drop in the measured response relative to a control, in per cent. On to `C=CC(=O)Nc1cnc(-c2cccc([C@H](C)C(=O)Nc3ncc(C(F)(F)F)s3)c2)cn1` [Example 37, (S)-N-(5-(3-(1-oxo-1-((5-(trifluoromethyl)thiazol-2-yl)amino)propan-2-yl)phenyl)pyrazin-2-yl)acrylamide], for which the IC50 in experiment [1] was 17 nM; in experiment [2] (Homo sapiens, HepG2, 72 h), 8 nM; in experiment [4] (Homo sapiens, MDA-MB-468, 72 h), 40 nM. Besides, the inhibition at 0.1 µM in experiment [3] came out at 60%.

Regarding `C=CC(=O)Nc1cnc(-c2cncc(C(C)C(=O)Nc3ncc(C(F)(F)F)s3)c2)cn1` (centres unmarked) [Example 45, N-(5-(5-(1-oxo-1-((5-(trifluoromethyl)thiazol-2-yl)amino)propan-2-yl)pyridin-3-yl)pyrazin-2-yl)acrylamide], the IC50 came to 22 nM in experiment [1]; 8 nM in experiment [2] (Homo sapiens, HepG2, 72 h); 10 nM in experiment [4] (Homo sapiens, MDA-MB-468, 72 h). For the same compound, in experiment [3], the inhibition at 0.1 µM came out at 59%.

For the compound `C=CC(=O)Nc1cnc(-c2cncc([C@H](C)C(=O)Nc3ncc(C(F)(F)F)s3)c2)cn1` [Example 52, (S)-N-(5-(5-(1-oxo-1-((5-(trifluoromethyl)thiazol-2-yl)amino)propan-2-yl)pyridin-3-yl)pyrazin-2-yl)acrylamide], the concentration for half-maximal inhibition (IC50) in experiment [1] stood at 19 nM. The inhibition at 0.1 µM in experiment [3] was determined as 72%.

Turning to `CC(C(=O)Nc1ncc(C(F)(F)F)s1)c1cncc(-c2cnc(NC(=O)/C=C/CN(C)C)cn2)c1` (centres unmarked) [Example 63, (E)-4-(dimethylamino)-N-(5-(5-(1-oxo-1-((5-(trifluoromethyl)thiazol-2-yl)amino)propan-2-yl)pyridin-3-yl)pyrazin-2-yl)but-2-enamide], the IC50 in experiment [1] came to 17 nM; in experiment [2] (Homo sapiens, HepG2, 72 h) it was 2 nM; in experiment [4] (Homo sapiens, MDA-MB-468, 72 h) it was 20 nM.

Take `CC(C(=O)Nc1ncc(Cl)s1)c1cncc(-c2cnc(NC(=O)/C=C/CN(C)C)cn2)c1` (centres unmarked) [Example 73, (E)-N-(5-(5-(1-((5-chlorothiazol-2-yl)amino)-1-oxopropan-2-yl)pyridin-3-yl)pyrazin-2-yl)-4-(dimethylamino)but-2-enamide]: the IC50 was 43 nM in experiment [1] and 35 nM in experiment [4] (Homo sapiens, MDA-MB-468, 72 h).

Consider `C[C@H](C(=O)Nc1ncc(C(F)(F)F)s1)c1cccc(-c2cnc(NC(=O)/C=C/CN(C)C)cn2)c1` [Example 91, (S,E)-4-(dimethylamino)-N-(5-(3-(1-oxo-1-((5-(trifluoromethyl)thiazol-2-yl)amino)propan-2-yl)phenyl)pyrazin-2-yl)but-2-enamide], for which the half-maximal inhibitory concentration (IC50) in experiment [1] stood at 8 nM; in experiment [2] (72 hours), 9.5 nM; in experiment [4] (72 hours), 38 nM.

Regarding `C[C@H](C(=O)Nc1ncc(C(F)(F)F)s1)c1cccc(-c2cnc(NC(=O)/C=C/CN3CCN(C)CC3)cn2)c1` [Example 95, (S,E)-4-(4-methylpiperazin-1-yl)-N-(5-(3-(1-oxo-1-((5-(trifluoromethyl)thiazol-2-yl)amino)propan-2-yl)phenyl)pyrazin-2-yl)but-2-enamide], the IC50 in experiment [1] is 80 nM; in experiment [4] (Homo sapiens, MDA-MB-468, 72 h), 57 nM.

For `C[C@H](C(=O)Nc1ncc(C(F)(F)F)s1)c1cccc(-c2cnc(NC(=O)/C=C/CN(C)C)c(C#N)c2)c1` [Example 101, (S,E)-N-(3-cyano-5-(3-(1-oxo-1-((5-(trifluoromethyl)thiazol-2-yl)amino)propan-2-yl)phenyl)pyridin-2-yl)-4-(dimethylamino)but-2-enamide], the inhibition at 1 µM in experiment [5] turned out to be 26%; in experiment [6], 22%; in experiment [7], 99%. The IC50 in experiment [1] came to 7 nM; in experiment [2] (Homo sapiens, HepG2, 72 h), 5 nM; in experiment [4] (Homo sapiens, MDA-MB-468, 72 h), 30 nM.

For `C[C@H](C(=O)Nc1ncc(N(C)C)s1)c1cccc(-c2cnc(NC(=O)/C=C/CN(C)C)cn2)c1` [Example 106, (S,E)-4-(dimethylamino)-N-(5-(3-(1-((5-(dimethylamino)thiazol-2-yl)amino)-1-oxopropan-2-yl)phenyl)pyrazin-2-yl)but-2-enamide], the IC50 in experiment [1] was 71 nM.

Take `C[C@H](C(=O)Nc1ncc(C(F)(F)F)s1)c1cccc(-c2ccc(NC(=O)/C=C/CN(C)C)nc2)c1` [Example 116, (S,E)-4-(dimethylamino)-N-(5-(3-(1-oxo-1-((5-(trifluoromethyl)thiazol-2-yl)amino)propan-2-yl)phenyl)pyridin-2-yl)but-2-enamide]: the IC50 in experiment [1] came to 13 nM; in experiment [4] (Homo sapiens, MDA-MB-468, 72 h) it was 65 nM.

For `C[C@H](C(=O)Nc1ncc(C(F)(F)F)s1)c1cccc(-c2cnc(NC(=O)/C=C/CN3CC[C@H](F)C3)cn2)c1` [Example 117, (E)-4-((S)-3-fluoropyrrolidin-1-yl)-N-(5-(3-((S)-1-oxo-1-((5-(trifluoromethyl)thiazol-2-yl)amino)propan-2-yl)phenyl)pyrazin-2-yl)but-2-enamide], the IC50 is 15 nM in experiment [1] and 56 nM in experiment [4] (Homo sapiens, MDA-MB-468, 72 h).

Turning to `C[C@H](C(=O)Nc1ncc(C(F)(F)F)s1)c1cccc(-c2cnc(NC(=O)/C=C/CN3CCC(O)C3)cn2)c1` (stereo partly drawn) [Example 119, (E)-4-(3-hydroxypyrrolidin-1-yl)-N-(5-(3-((S)-1-oxo-1-((5-(trifluoromethyl)thiazol-2-yl)amino)propan-2-yl)phenyl)pyrazin-2-yl)but-2-enamide], the IC50 in experiment [1] came out at 9 nM; in experiment [4] (Homo sapiens, MDA-MB-468, 72 h), 44 nM.

Consider `CCc1cnc(NC(=O)[C@@H](C)c2cccc(-c3cnc(NC(=O)/C=C/CN(C)C)c(C#N)c3)c2)s1` [Example 121, (S,E)-N-(3-cyano-5-(3-(1-((5-ethylthiazol-2-yl)amino)-1-oxopropan-2-yl)phenyl)pyridin-2-yl)-4-(dimethylamino)but-2-enamide], for which the inhibition at 1 µM in experiment [5] came to 20%; in experiment [6], 30%; in experiment [7] it was 99%. Moreover, the IC50 in experiment [1] was 7 nM; in experiment [2] (Homo sapiens, HepG2, 72 h), 3 nM; in experiment [4] (Homo sapiens, MDA-MB-468, 72 h), 23 nM.

On to `CCc1cnc(NC(=O)[C@@H](C)c2cccc(-c3cnc(NC(=O)/C=C/CN(C)C)c(C)c3)c2)s1` [Example 125], for which the 50% inhibitory concentration (IC50) in experiment [1] was 13 nM; in experiment [4] (Homo sapiens, MDA-MB-468, 72 h) it was 33 nM.

On to `CCc1cnc(NC(=O)[C@@H](C)c2cccc(-c3cnc(NC(=O)/C=C/CN(C)C)c(F)c3)c2)s1` [Example 130, (S,E)-4-(dimethylamino)-N-(5-(3-(1-((5-ethylthiazol-2-yl)amino)-1-oxopropan-2-yl)phenyl)-3-fluoropyridin-2-yl)but-2-enamide], for which the concentration for half-maximal inhibition (IC50) turned out to be 8 nM in experiment [1]; 3.8 nM in experiment [2] (Homo sapiens, HepG2, 72 h); 18 nM in experiment [4] (Homo sapiens, MDA-MB-468, 72 h).
